# Assay results published in patent US8999957B2, “Heterocyclic compounds as ERK inhibitors” (Merck Sharp & Dohme Corp., priority 2010, dated 2015).
# Where “and” joins values, the source holds several entries; their conditions need not be identical. Equal entries are not always repeated.
# Target: fully phosphorylated, mouse aERK2 enzyme (Mus musculus (Mouse), UniProt P63085)
# Experiment: Active ERK2 (aERK) IMAP-FP assay, condition 2
# Type: biochemical
# Conditions: aERK assay condition 2, 30 uM ATP; read-out: aERK IC50
# Summary of the method: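 Phosphorylation by fully phosphorylated mouse ERK2 ran 40-45 min, then quenched with IMAP beads (1:1000) in binding buffer; fluorescence polarization read after 30 min binding equilibration.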
# fully phosphorylated, mouse aERK2 enzyme, sequence (P63085 whole entry): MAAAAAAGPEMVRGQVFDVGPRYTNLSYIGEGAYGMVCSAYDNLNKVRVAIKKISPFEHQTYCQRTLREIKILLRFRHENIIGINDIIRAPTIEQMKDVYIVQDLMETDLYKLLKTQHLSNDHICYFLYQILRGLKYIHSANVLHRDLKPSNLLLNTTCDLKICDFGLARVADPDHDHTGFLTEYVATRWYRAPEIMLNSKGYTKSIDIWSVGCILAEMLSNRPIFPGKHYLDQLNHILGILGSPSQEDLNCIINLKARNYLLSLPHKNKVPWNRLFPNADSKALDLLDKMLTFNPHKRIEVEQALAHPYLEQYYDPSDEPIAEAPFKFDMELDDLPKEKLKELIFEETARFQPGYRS
row,Structure (SMILES),IC50 [nM]
1,"COc1cccc(F)c1CN1C[C@H](NC(=O)c2ccc3[nH]nc(-c4ccnc(C)c4)c3c2)CC[C@H]1C(=O)NOCC1CC1 [N-[(3R,6S)-6-[(cyclopropylmethoxy)carbamoyl]-1-(2-fluoro-6-methoxybenzyl)piperidin-3-yl]-3-(2-methylpyridin-4-yl)-1H-indazole-5-carboxamide]",0.6
2,"COc1cccc(F)c1CN1C[C@H](NC(=O)c2ccc3[nH]nc(-c4ccnc(C)c4)c3c2)CC[C@H]1C(=O)NCC1CC1 [N-[(3R,6S)-6-[(cyclopropylmethyl)carbamoyl]-1-(2-fluoro-6-methoxybenzyl)piperidin-3-yl]-3-(2-methylpyridin-4-yl)-1H-indazole-5-carboxamide]",4.9
3,"COc1cccc(F)c1CN1C[C@H](NC(=O)c2ccc3[nH]nc(-c4ccnc(C)c4)c3c2)CC[C@H]1C(=O)NC1(C)CC1 [N-{(3R,6S)-1-(2-fluoro-6-methoxybenzyl)-6-[(1-methylcyclopropyl)carbamoyl]piperidin-3-yl}-3-(2-methylpyridin-4-yl)-1H-indazole-5-carboxamide]",4.7
4,"COc1ccc(NC(=O)[C@@H]2CC[C@@H](NC(=O)c3ccc4[nH]nc(-c5ccnc(C)c5)c4c3)CN2Cc2c(F)cccc2OC)cc1F [N-{(3R,6S)-1-(2-fluoro-6-methoxybenzyl)-6-[(3-fluoro-4-methoxyphenyl)carbamoyl]piperidin-3-yl}-3-(2-methylpyridin-4-yl)-1H-indazole-5-carboxamide]",16.7
5,"COc1cccc(F)c1CN1C[C@H](NC(=O)c2ccc3[nH]nc(-c4ccnc(C)c4)c3c2)CC[C@H]1C(=O)Nc1cccc(F)c1 [N-{(3R,6S)-1-(2-fluoro-6-methoxybenzyl)-6-[(3-fluorophenyl)carbamoyl]piperidin-3-yl}-3-(2-methylpyridin-4-yl)-1H-indazole-5-carboxamide]",15.2

# The next lines start with the values.
row,IC50 [nM],Structure (SMILES)
1,2.5,"COc1cccc(F)c1CN1C[C@H](NC(=O)c2ccc3[nH]nc(-c4ccnc(C)c4)c3c2)CC[C@H]1C(=O)N(C)C1CC1 [N-[(3R,6S)-6-[cyclopropyl(methyl)carbamoyl]-1-(2-fluoro-6-methoxybenzyl)piperidin-3-yl]-3-(2-methylpyridin-4-yl)-1H-indazole-5-carboxamide]"
2,1.1,"COc1cccc(F)c1CN1C[C@H](NC(=O)c2ccc3[nH]nc(-c4ccnc(C)c4)c3c2)CC[C@H]1C(=O)N1CC(C)(O)C1 [N-{(3R,6S)-1-(2-fluoro-6-methoxybenzyl)-6-[(3-hydroxy-3-methylazetidin-1-yl)carbonyl]piperidin-3-yl}-3-(2-methylpyridin-4-yl)-1H-indazole-5-carboxamide]"

# Same assay, conditions: active ERK2; read-out: aErk2 Ic50
row,Structure (SMILES),IC50
1,"Cc1cc(-c2n[nH]c3ccc(C(=O)N[C@@H]4CC[C@@H](C(=O)N5CC(F)(F)C5)N(Cc5c(F)cccc5F)C4)cc23)ccn1 [N-[(3R,6S)-6-[(3,3-difluoroazetidin-1-yl)carbonyl]-1-(2,6-difluorobenzyl)piperidin-3-yl]-3-(2-methylpyridin-4-yl)-1H-indazole-5-carboxamide]",96.5 nM
2,"COc1cccc(F)c1CN1C[C@H](NC(=O)c2ccc3[nH]nc(-c4ccnc(C)c4)c3c2)CC[C@H]1C(=O)N1CC(F)(F)C1 [N-[(3R,6S)-6-[(3,3-difluoroazetidin-1-yl)carbonyl]-1-(2-fluoro-6-methoxybenzyl)-piperidin-3-yl]-3-(2-methylpyridin-4-yl)-1H-indazole-5-carboxamide]",14.8 nM and 10.4 nM
3,"COc1cccc(F)c1CN1C[C@H](NC(=O)c2ccc3[nH]nc(-c4ccnnc4)c3c2)CC[C@H]1C(=O)N1CC(F)(F)C1 [N-[(3R,6S)-6-[(3,3-difluoroazetidin-1-yl)carbonyl]-1-(2-fluoro-6-methoxybenzyl)-piperidin-3-yl]-3-pyridazin-4-yl-1H-indazole-5-carboxamide]",61.2 nM
4,"Cc1cc(-c2n[nH]c3ccc(C(=O)N[C@@H]4CC[C@@H](C(=O)N5CC(F)(F)C5)N(Cc5ccccc5F)C4)cc23)ccn1 [N-[(3R,6S)-6-[(3,3-difluoroazetidin-1-yl)carbonyl]-1-(2-fluorobenzyl)piperidin-3-yl]-3-(2-methylpyridin-4-yl)-1H-indazole-5-carboxamide]",56.6 nM
5,"Cc1cc(-c2n[nH]c3ccc(C(=O)N[C@@H]4CC[C@@H](C(=O)N5CC(F)(F)C5)N(CCc5ccccc5)C4)cc23)ccn1 [N-[(3R,6S)-6-[(3,3-difluoroazetidin-1-yl)carbonyl]-1-(2-phenylethyl)piperidin-3-yl]-3-(2-methylpyridin-4-yl)-1H-indazole-5-carboxamide]",232 nM
6,"Cc1cc(-c2n[nH]c3ccc(C(=O)N[C@@H]4CC[C@@H](C(=O)N5CC(F)(F)C5)N(Cc5cccs5)C4)cc23)ccn1 [N-[(3R,6S)-6-[(3,3-difluoroazetidin-1-yl)carbonyl]-1-(thiophen-2-ylmethyl)-piperidin-3-yl]-3-(2-methylpyridin-4-yl)-1H-indazole-5-carboxamide]",25.8 nM
7,"COc1cccc(F)c1CN1C[C@H](NC(=O)c2ccc3[nH]nc(-c4ccnc(C)c4)c3c2)CC[C@H]1C(=O)NCCCCl [N-[(3R,6S)-6-[(3-chloropropyl)carbamoyl]-1-(2-fluoro-6-methoxybenzyl)piperidin-3-yl]-3-(2-methylpyridin-4-yl)-1H-indazole-5-carboxamide]",11.8 nM
8,"COc1cccc(F)c1CN1C[C@H](NC(=O)c2ccc3[nH]nc(-c4ccnc(C)c4)c3c2)CC[C@H]1C(=O)N1CCN(C(C)=O)CC1 [N-[(3R,6S)-6-[(4-acetylpiperazin-1-yl)carbonyl]-1-(2-fluoro-6-methoxybenzyl)-piperidin-3-yl]-3-(2-methylpyridin-4-yl)-1H-indazole-5-carboxamide]",19.1 nM
9,"COc1cccc(F)c1CN1C[C@H](NC(=O)c2ccc3[nH]nc(-c4ccnc(C)c4)c3c2)CC[C@H]1C(=O)N1CCC(Cl)CC1 [N-[(3R,6S)-6-[(4-chloropiperidin-1-yl)carbonyl]-1-(2-fluoro-6-methoxybenzyl)-piperidin-3-yl]-3-(2-methylpyridin-4-yl)-1H-indazole-5-carboxamide]",48.3 nM
10,"COc1cccc(F)c1CN1C[C@H](NC(=O)c2ccc3[nH]nc(-c4ccc5nc(C)sc5c4)c3c2)CC[C@H]1C(N)=O [N-[(3R,6S)-6-carbamoyl-1-(2-fluoro-6-methoxybenzyl)piperidin-3-yl]-3-(2-methyl-1,3-benzothiazaol-6-yl)-1H-indazole-5-carboxamide]",3.6 nM
11,"COc1cccc(F)c1CN1C[C@H](NC(=O)c2ccc3[nH]nc(-c4ccnc(C)c4)c3c2)CC[C@H]1C(N)=O [N-[(3R,6S)-6-carbamoyl-1-(2-fluoro-6-methoxybenzyl)piperidin-3-yl]-3-(2-methylpyridin-4-yl)-1H-indazole-5-carboxamide]",1 nM
12,"COc1cccc(F)c1CN1C[C@H](NC(=O)c2ccc3[nH]nc(-c4ccncc4)c3c2)CC[C@H]1C(N)=O [N-[(3R,6S)-6-carbamoyl-1-(2-fluoro-6-methoxybenzyl)piperidin-3-yl]-3-pyridin-4-yl-1H-indazole-5-carboxamide]",1.7 nM
13,"COc1cccc(F)c1CN1C[C@H](NC(=O)c2ccc3[nH]nc(-c4ccnc(C)c4)c3c2)CC[C@H]1C(=O)NCC(F)(F)F [N-{(3R,6S)-1-(2-fluoro-6-methoxybenzyl)-6-[(2,2,2-trifluoroethyl)carbamoyl]piperidin-3-yl}-3-(2-methylpyridin-4-yl)-1H-indazole-5-carboxamide]",46.5 nM
14,"COCCNC(=O)[C@@H]1CC[C@@H](NC(=O)c2ccc3[nH]nc(-c4ccnc(C)c4)c3c2)CN1Cc1c(F)cccc1OC [N-{(3R,6S)-1-(2-fluoro-6-methoxybenzyl)-6-[(2-methoxyethyl)carbamoyl]piperidin-3-yl}-3-(2-methylpyridin-4-yl)-1H-indazole-5-carboxamide]",56.7 nM

# Continued, values first:
row,IC50,Structure (SMILES)
1,47.4 nM,"COc1cccc(F)c1CN1C[C@H](NC(=O)c2ccc3[nH]nc(-c4ccc5nc(C)sc5c4)c3c2)CC[C@H]1C(=O)N1CC(F)(F)C1 [N-[(3R,6S)-6-[(3,3-difluoroazetidin-1-yl)carbonyl]-1-(2-fluoro-6-methoxybenzyl)-piperidin-3-yl]-3-(2-methyl-1,3-benzothiazol-6-yl)-1H-indazole-5-carboxamide]"
2,21.8 nM,"CCN(C)C(=O)[C@@H]1CC[C@@H](NC(=O)c2ccc3[nH]nc(-c4ccnc(C)c4)c3c2)CN1Cc1c(F)cccc1OC [N-[(3R,6S)-6-[ethyl(methyl)carbamoyl]-1-(2-fluoro-6-methoxybenzyl)piperidin-3-yl]-3-(2-methylpyridin-4-yl)-1H-indazole-5-carboxamide]"
3,121 nM,"COc1cccc(F)c1CN1C[C@H](NC(=O)c2ccc3[nH]nc(-c4ccnc(C)c4)c3c2)CC[C@H]1C(=O)NCCOCc1ccccc1 [N-[(3R,6S)-6-{[2-(benzyloxy)ethyl]-carbamoyl}-1-(2-fluoro-6-methoxybenzyl)-piperidin-3-yl]-3-(2-methylpyridin-4-yl)-1H-indazole-5-carboxamide]"
4,16.4 nM,"CCNC(=O)N1CCN(C(=O)[C@@H]2CC[C@@H](NC(=O)c3ccc4[nH]nc(-c5ccnc(C)c5)c4c3)CN2Cc2c(F)cccc2OC)CC1 [N-[(3R,6S)-6-{[4-(ethylcarbamoyl)piperazin-1-yl]carbonyl}-1-(2-fluoro-6-methoxy-benzyl)piperidin-3-yl]-3-(2-methylpyridin-4-yl)-1H-indazole-5-carboxamide]"
5,46.5 nM,"COc1cccc(F)c1CN1C[C@H](NC(=O)c2ccc3[nH]nc(-c4ccnc(C)c4)c3c2)CC[C@H]1C(=O)NC(C)C [N-{(3R,6S)-1-(2-fluoro-6-methoxybenzyl)-6-[(1-methylethyl)carbamoyl]piperidin-3-yl}-3-(2-methylpyridin-4-yl)-1H-indazole-5-carboxamide]"
6,5.6 nM,"COc1cccc(F)c1CN1C[C@H](NC(=O)c2ccc3[nH]nc(-c4ccnc(C)c4)c3c2)CC[C@H]1C(=O)NCCO [N-{(3R,6S)-1-(2-fluoro-6-methoxybenzyl)-6-[(2-hydroxyethyl)carbamoyl]piperidin-3-yl}-3-(2-methylpyridin-4-yl)-1H-indazole-5-carboxamide]"
